From paper PMC6430017, “Structural and chemical insights into the covalent-allosteric inhibition of the protein kinase Akt” (Chemical Science, 2019)

How the values were obtained:
Assay in all cases: SelectScreen Z'LYTE kinase profiling
Assay type in all cases: biochemical
Conditions in all cases: ATP at apparent KM
BRSK1 (SAD1) = biological target: T1, BRSK1 (SAD1) (Homo sapiens, UniProt Q8TDC3)
T1 sequence (Q8TDC3 1-778): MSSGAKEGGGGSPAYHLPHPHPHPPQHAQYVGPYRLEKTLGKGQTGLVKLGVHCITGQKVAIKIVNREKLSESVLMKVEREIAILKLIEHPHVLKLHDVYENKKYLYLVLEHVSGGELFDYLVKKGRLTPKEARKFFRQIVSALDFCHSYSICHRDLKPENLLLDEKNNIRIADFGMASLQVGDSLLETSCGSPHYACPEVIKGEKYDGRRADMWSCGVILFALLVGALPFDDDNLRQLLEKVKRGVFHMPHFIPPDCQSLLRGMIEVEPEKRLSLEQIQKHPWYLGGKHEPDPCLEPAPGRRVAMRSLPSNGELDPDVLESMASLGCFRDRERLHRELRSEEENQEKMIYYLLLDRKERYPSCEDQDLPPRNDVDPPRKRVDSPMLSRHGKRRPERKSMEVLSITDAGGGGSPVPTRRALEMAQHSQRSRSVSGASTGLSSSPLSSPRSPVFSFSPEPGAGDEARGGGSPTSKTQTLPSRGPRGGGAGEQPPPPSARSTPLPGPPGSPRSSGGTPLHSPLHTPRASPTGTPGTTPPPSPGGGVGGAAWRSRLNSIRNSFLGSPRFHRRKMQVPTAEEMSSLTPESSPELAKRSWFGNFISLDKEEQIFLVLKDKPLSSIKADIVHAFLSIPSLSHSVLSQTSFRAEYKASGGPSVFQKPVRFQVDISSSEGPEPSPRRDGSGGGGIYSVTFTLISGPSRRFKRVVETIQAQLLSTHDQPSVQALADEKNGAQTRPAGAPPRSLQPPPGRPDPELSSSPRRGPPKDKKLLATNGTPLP
Procedure: (§1) protein kinases at a compound concentration of 1 µM. Measurements were performed in duplicates
(§2) and at the particular apparent ATP KM of each individual kinase employing the activity based Z’LYTE®
(§3) kinase assay of the SelectScreen® Kinase Profiling Services (ThermoFisher Scientific).
(§4) kinases at a compound concentration of 1 µM. Measurements were performed in duplicates and at
(§5) the particular apparent ATP KM of each individual kinase employing the activity based Z’LYTE® kinase
(§6) assay of the SelectScreen® Kinase Profiling Services (ThermoFisher Scientific).

FGFR1 = FGFR1 (Homo sapiens, UniProt P11362)
Procedure: as §1, §2, §3, §4, §5, §6

RPS6KA2 (RSK3) = RPS6KA2 (RSK3) (Homo sapiens, UniProt Q15349)
Procedure: as §1, §2, §3, §4, §5, §6

PRKCN (PKD3) = biological target: T2, PRKCN (PKD3) (Homo sapiens, UniProt O94806)
T2 sequence (O94806 1-890): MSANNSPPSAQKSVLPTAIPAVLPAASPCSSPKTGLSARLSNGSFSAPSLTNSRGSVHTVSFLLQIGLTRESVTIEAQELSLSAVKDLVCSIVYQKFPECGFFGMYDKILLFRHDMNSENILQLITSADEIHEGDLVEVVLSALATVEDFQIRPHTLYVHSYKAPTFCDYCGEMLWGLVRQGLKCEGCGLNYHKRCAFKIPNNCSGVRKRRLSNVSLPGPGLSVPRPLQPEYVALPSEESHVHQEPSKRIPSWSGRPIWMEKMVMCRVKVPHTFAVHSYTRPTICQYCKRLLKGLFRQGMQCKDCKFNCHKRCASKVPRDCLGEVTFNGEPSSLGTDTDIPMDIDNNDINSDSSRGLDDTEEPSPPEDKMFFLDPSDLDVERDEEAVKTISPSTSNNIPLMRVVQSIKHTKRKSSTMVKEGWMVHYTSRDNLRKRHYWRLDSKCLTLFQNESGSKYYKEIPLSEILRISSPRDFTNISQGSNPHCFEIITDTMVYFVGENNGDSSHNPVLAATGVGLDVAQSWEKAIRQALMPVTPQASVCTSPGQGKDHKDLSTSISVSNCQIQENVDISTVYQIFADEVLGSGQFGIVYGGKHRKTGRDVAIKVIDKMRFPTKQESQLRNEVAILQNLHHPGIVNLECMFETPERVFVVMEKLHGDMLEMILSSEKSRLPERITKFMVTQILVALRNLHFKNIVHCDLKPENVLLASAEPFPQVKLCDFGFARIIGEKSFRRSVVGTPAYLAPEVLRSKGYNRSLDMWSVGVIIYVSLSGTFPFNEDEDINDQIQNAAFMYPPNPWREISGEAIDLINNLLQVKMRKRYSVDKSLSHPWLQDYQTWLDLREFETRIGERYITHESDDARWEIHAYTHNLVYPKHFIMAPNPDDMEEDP
Procedure: as §1, §2, §3, §4, §5, §6

PRKD1 (PKC mu) = biological target: T3, PRKD1 (PKC mu) (Homo sapiens, UniProt Q15139)
T3 sequence (Q15139 1-912): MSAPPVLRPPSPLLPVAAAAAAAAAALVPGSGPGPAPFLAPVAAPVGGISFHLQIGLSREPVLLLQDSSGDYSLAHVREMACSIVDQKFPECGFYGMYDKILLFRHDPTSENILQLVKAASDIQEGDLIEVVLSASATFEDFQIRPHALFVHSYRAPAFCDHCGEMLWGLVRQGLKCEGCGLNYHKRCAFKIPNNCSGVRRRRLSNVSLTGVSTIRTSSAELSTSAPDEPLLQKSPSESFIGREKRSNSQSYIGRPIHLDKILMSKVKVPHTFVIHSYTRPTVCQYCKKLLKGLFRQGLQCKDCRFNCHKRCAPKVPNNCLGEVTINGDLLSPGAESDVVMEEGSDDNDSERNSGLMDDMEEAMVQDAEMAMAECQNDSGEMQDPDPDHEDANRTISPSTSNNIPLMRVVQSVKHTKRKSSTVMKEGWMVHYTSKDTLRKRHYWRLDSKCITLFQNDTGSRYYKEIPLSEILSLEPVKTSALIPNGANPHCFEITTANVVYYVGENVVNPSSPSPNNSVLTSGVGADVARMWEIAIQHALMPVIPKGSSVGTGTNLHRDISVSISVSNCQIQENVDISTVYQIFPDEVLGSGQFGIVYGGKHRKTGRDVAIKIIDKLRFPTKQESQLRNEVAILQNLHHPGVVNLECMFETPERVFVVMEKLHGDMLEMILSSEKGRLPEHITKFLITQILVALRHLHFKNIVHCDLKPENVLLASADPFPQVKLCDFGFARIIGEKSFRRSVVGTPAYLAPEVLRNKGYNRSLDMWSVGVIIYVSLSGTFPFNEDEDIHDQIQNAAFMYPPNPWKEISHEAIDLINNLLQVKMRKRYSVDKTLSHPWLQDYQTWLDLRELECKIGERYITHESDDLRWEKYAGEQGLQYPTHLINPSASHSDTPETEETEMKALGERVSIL
Procedure: as §1, §2, §3, §4, §5, §6

DNA-PK = DNA-PK (Homo sapiens, UniProt P78527)
Procedure: as §1, §2, §3, §4, §5, §6

Sequence of FGFR1 (P11362 22-822): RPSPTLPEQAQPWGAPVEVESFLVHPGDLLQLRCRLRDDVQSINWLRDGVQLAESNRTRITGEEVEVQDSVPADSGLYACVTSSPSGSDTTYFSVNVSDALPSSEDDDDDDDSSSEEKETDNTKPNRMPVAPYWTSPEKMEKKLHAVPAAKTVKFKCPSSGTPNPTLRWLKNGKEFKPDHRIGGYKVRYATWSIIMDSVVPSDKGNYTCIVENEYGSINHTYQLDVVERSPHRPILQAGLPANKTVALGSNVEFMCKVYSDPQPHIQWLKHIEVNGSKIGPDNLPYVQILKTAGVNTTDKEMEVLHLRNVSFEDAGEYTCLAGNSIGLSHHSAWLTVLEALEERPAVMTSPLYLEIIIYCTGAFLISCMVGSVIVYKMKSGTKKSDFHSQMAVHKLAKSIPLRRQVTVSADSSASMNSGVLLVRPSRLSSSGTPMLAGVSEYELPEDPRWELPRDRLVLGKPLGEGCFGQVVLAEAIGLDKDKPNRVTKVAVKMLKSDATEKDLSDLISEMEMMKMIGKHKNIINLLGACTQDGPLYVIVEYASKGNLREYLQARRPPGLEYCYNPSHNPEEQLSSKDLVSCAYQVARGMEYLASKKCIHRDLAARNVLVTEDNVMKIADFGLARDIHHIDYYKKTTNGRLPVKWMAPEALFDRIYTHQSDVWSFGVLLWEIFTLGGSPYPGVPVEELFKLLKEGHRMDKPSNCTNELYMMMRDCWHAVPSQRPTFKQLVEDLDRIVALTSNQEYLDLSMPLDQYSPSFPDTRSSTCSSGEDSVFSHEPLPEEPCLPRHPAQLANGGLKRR
Sequence of RPS6KA2 (RSK3) (Q15349 whole entry): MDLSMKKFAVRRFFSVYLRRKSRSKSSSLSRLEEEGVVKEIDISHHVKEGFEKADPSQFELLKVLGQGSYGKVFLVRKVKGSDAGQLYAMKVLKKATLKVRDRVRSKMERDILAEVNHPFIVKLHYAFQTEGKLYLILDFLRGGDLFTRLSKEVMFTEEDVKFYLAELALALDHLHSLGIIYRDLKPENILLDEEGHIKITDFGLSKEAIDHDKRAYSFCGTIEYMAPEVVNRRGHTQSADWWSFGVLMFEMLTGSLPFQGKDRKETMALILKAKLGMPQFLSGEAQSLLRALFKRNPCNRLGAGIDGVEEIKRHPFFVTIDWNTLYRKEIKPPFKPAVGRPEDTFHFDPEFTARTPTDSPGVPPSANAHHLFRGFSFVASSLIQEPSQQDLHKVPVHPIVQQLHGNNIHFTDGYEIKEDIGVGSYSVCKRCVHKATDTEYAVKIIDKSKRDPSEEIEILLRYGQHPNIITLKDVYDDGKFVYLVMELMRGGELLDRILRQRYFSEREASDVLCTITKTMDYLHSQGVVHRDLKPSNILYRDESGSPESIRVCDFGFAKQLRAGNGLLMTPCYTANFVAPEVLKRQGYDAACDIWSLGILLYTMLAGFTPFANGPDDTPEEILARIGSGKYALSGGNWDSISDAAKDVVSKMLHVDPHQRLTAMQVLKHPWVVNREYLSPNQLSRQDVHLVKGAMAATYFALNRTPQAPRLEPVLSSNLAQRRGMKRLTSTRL

C=CC(=O)Nc1cc(NC(=O)NC2CCN(Cc3ccc(-c4nc5cc[nH]c(=O)c5cc4-c4ccccc4)cc3)CC2)ccc1Cl [compound 27]
inhibition at 1 µM (BRSK1 (SAD1)): 16%
inhibition at 1 µM (FGFR1): 24%
inhibition at 1 µM (RPS6KA2 (RSK3)): 31%
inhibition at 1 µM (PRKCN (PKD3)): 16%
inhibition at 1 µM (PRKD1 (PKC mu)): 17%
inhibition at 1 µM (DNA-PK): 5%

C=CC(=O)Nc1cccc(C(=O)NC2CCN(Cc3ccc(-c4nc5cc[nH]c(=O)c5cc4-c4ccccc4)cc3)CC2)c1 [30b]
inhibition at 1 µM (BRSK1 (SAD1)): 7%
inhibition at 1 µM (FGFR1): 10%
inhibition at 1 µM (RPS6KA2 (RSK3)): 33%
inhibition at 1 µM (PRKCN (PKD3)): 14%
inhibition at 1 µM (PRKD1 (PKC mu)): 6%
inhibition at 1 µM (DNA-PK): 8%

C=CC(=O)Nc1ccc2c(c1)n(C1CCN(Cc3ccc(-c4nc5cc[nH]c(=O)c5cc4-c4ccccc4)cc3)CC1)c(=O)n2C [24b]
inhibition at 1 µM (BRSK1 (SAD1)): 2%
inhibition at 1 µM (FGFR1): 7%
inhibition at 1 µM (RPS6KA2 (RSK3)): 25%
inhibition at 1 µM (PRKCN (PKD3)): 10%
inhibition at 1 µM (PRKD1 (PKC mu)): 13%
inhibition at 1 µM (DNA-PK): 7%
